According to PMC6256987, “Investigating the Activity Spectrum for Ring-Substituted 8-Hydroxyquinolines” (Molecules, 2010):
Converted amounts (≈) assume the structure as drawn. “And” between values parts separate entries of the source, which are not always exact repeats. Equal entries are not always repeated. Where two headings read alike, the source gives them in different places.

What was measured:
[1] = Lipophilicity determination by RP-HPLC (capacity factor k / log k); type: physicochemical; conditions: C18 column, isocratic MeOH 55.0% / H2O 45.0%
From the text: A Waters Alliance 2695 XE HPLC separation module and Waters Photodiode Array Detector 2996 (Waters Corp., Milford, MA, USA) were used. A Symmetry® C18 5 μm, 4.6 × 250 mm, Part No. WAT054275, (Waters Corp., Milford, MA, USA) chromatographic column was used. The HPLC separation process was monitored by Millennium32® Chromatography Manager Software, Waters 2004 (Waters Corp., Milford, MA, USA). A mixture of MeOH p.a. (55.0%) and H2O-HPLC– Mili-Q Grade (45.0%) was used as a mobile phase. The total flow of the column was 0.9 mL/min, injection 30 μL, column temperature 30 °C and sample temperature 10 °C. The detection wavelength 210 nm was chosen. The KI methanolic solution was used for the dead time (tD) determination. Retention times (tR) were measured in minutes.
The capacity factors k were calculated using the Millennium32® Chromatography Manager Software according to formula k = (tR - tD)/tD, where tR is the retention time of the solute, whereas tD denotes the dead time obtained via an unretained analyte. Log k, calculated from the capacity factor k, is used as the lipophilicity index converted to log P scale.

[2] = system: photosynthetic electron transport (PET) in spinach chloroplasts; assay: Inhibition of photosynthetic electron transport (PET) in spinach chloroplasts, DCPIP photoreduction; type: biochemical, Spinacia oleracea L.; conditions: DCPIP as electron acceptor, phosphate buffer pH 7.2, read-out: PET reduction IC50
Method: Chloroplasts were prepared from spinach (Spinacia oleracea L.) according to Masarovicova and Kralova. The inhibition of photosynthetic electron transport (PET) in spinach chloroplasts was determined spectrophotometrically (Genesys 6, Thermo Scientific, USA) using an artificial electron acceptor 2,6-dichlorophenol-indophenol (DCIPP) according to Kralova et al. and the rate of photosynthetic electron transport was monitored as a photoreduction of DCPIP. The measurements were carried out in phosphate buffer (0.02 mol/L, pH 7.2) containing sucrose (0.4 mol/L), MgCl2 (0.005 mol/L) and NaCl (0.015 mol/L). The chlorophyll content was 30 mg/L in these experiments and the samples were irradiated (~100 W/m^2) from 10 cm distance with a halogen lamp (250 W) using a 4 cm water filter to prevent warming of the samples (suspension temperature 22 °C). The studied compounds were dissolved in DMSO due to their limited water solubility. […] The inhibitory efficiency of the studied compounds was expressed by IC50 values, i.e., by molar concentration of the compounds causing 50% decrease in the oxygen evolution rate relative to the untreated control.

[3] = system: Candida albicans ATCC 44859; assay: In vitro antifungal broth microdilution test; type: cell-based; conditions: Candida albicans, ATCC44859, 35 °C, RPMI 1640 pH 7.0, CLSI M27-A2 (IC80 value)
Candida tropicalis 156 = assay: In vitro antifungal broth microdilution test; type: cell-based; conditions: Candida tropicalis, 156, 35 °C, RPMI 1640 pH 7.0, CLSI M27-A2 (IC80 value)
Candida krusei ATCC 6258 = assay: In vitro antifungal broth microdilution test; type: cell-based; conditions: Pichia kudriavzevii, ATCC6258, 35 °C, RPMI 1640 pH 7.0, CLSI M27-A2 (IC80 value)
Candida glabrata 20/I = assay: In vitro antifungal broth microdilution test; type: cell-based; conditions: Nakaseomyces glabratus, 20/I, 35 °C, RPMI 1640 pH 7.0, CLSI M27-A2 (IC80 value)
[4] = system: Trichosporon beigelii 1188; assay: In vitro antifungal broth microdilution test; type: cell-based; conditions: Trichosporon beigelii, 1188, 35 °C, RPMI 1640 pH 7.0, CLSI M27-A2 (IC80 value), read-out: MIC TB
Method: Fluconazole (FLU) was used as the standard of a clinically used antimycotic drug. The procedure was performed with twofold dilution of the compounds in RPMI 1640 (Sevapharma a.s., Prague, Czech Republic) buffered to pH 7.0 with 0.165 mol of 3-morpholino-propane-1-sulfonic acid (MOPS, Sigma, Germany). The final concentrations of the compounds ranged from 500 to 0.975 μmol/L. Drug–free controls were included. The MIC determination was performed according to the CLSI (formerly NCCLS) reference protocol M27-A2 for yeasts (IC80 value) and M38-A for moulds (IC50 value). […] The values of MICs were determined after 24 and 48 h of static incubation at 35 °C. For T. mentagrophytes, the final MICs were determined after 72 and 120 h of incubation.

[5] = system: Aspergillus fumigatus 231; assay: In vitro antifungal broth microdilution test; type: cell-based; conditions: Aspergillus fumigatus, 231, 35 °C, RPMI 1640 pH 7.0, CLSI M38-A (IC50 value)
Absidia corymbifera 272 = assay: In vitro antifungal broth microdilution test; type: cell-based; conditions: Lichtheimia corymbifera, 272, 35 °C, RPMI 1640 pH 7.0, CLSI M38-A (IC50 value)
[6] = system: Trichophyton mentagrophytes 445; assay: In vitro antifungal broth microdilution test; type: cell-based
M. smegmatis MC2155 = assay: In vitro antimycobacterial evaluation (alamarBlue, 96 well plate); type: cell-based; conditions: Mycolicibacterium smegmatis, Middlebrook broth, 37 °C overnight, read-out: MIC/IC90 M. smegmatis
M. absessus CIT21/06 = assay: as above; type: cell-based; conditions: Middlebrook broth, 37 °C overnight, read-out: MIC/IC90 M. absessus
M. kansasii CIT11/06 = assay: as above; type: cell-based; conditions: Mycobacterium kansasii, CIT11/06, 120 h, Middlebrook broth, 37 °C 5 days, read-out: MIC/IC90 M. kansasii
[7] = system: Mycobacterium avium complex CIT19/06; assay: as above; type: cell-based; conditions: 120 h, Middlebrook broth, 37 °C 5 days, read-out: MIC/IC90 M. avium complex
[8] = system: photosynthetic electron transport (PET) in spinach chloroplasts; parameters: method as in earlier work; conditions: standard, read-out: PET reduction IC50; cited from earlier work
[9] = Trichophyton mentagrophytes, 445, 120 h, pH 7
[10] = Trichophyton mentagrophytes, 445, 72h, RPMI 1640 pH 7.0, CLSI M38-A (IC50 value)

Compound | log k [1] | IC50 [2] [µM] | MIC ([3]; 24h) [µM] | MIC ([3]; 48h) [µM] | MIC (Candida tropicalis 156; 24h) [µM] | MIC (Candida tropicalis 156; 48h) [µM] | MIC (Candida krusei ATCC 6258; 24h) [µM] | MIC (Candida krusei ATCC 6258; 48h) [µM] | MIC (Candida glabrata 20/I; 24h) [µM] | MIC (Candida glabrata 20/I; 48h) [µM] | MIC ([4]; 24h) [µM] | MIC ([4]; 48h) [µM] | MIC ([5]; 24h) [µM] | MIC ([5]; 48h) [µM] | MIC (Absidia corymbifera 272; 24h) [µM] | MIC (Absidia corymbifera 272; 48h) [µM] | MIC (M. smegmatis MC2155) [µg/mL] | MIC (M. absessus CIT21/06) [µg/mL] | MIC (M. kansasii CIT11/06) [µg/mL] | MIC [7] [µg/mL] | other results
Oc1ccc(C=Cc2ccc3c(Cl)cc(Cl)c(O)c3n2)cc1 [Compound 10, 5,7-Dichloro-2-[2-(4-hydroxyphenyl)vinyl]quinolin-8-ol] | 1.5866 | 660 | 125 (≈ 41.5 µg/mL) | > 125 | 125 (≈ 41.5 µg/mL) | > 125 | 125 (≈ 41.5 µg/mL) | > 125 | 125 (≈ 41.5 µg/mL) | > 125 | 125 (≈ 41.5 µg/mL) | > 125 | 125 (≈ 41.5 µg/mL) | 125 (≈ 41.5 µg/mL) | 31.2 (≈ 10.4 µg/mL) | 62.5 (≈ 20.8 µg/mL) | 150 (≈ 452 µM) | > 300 | > 300 | > 300 | MIC [6, 9]: 62.5 µM (≈ 20.8 µg/mL); MIC [6, 10]: 15.6 µM (≈ 5.19 µg/mL)
Oc1ccc(C=Cc2ccc3c(Cl)cc(Cl)c(O)c3n2)c(O)c1 [Compound 11, 5,7-Dichloro-2-[2-(2,4-dihydroxyphenyl)vinyl]quinolin-8-ol] | 1.5858 |  |  |  |  |  |  |  |  |  |  |  |  |  |  |  | 100 (≈ 287 µM) | > 100 | > 100 | > 100 | 
Oc1cc(O)cc(C=Cc2ccc3c(Cl)cc(Cl)c(O)c3n2)c1 [Compound 12, 5,7-Dichloro-2-[2-(3,5-dihydroxyphenyl)vinyl]quinolin-8-ol] | 1.5867 | 341 | > 125 | > 125 | > 125 | > 125 | > 125 | > 125 | > 125 | > 125 | > 125 | > 125 | 125 (≈ 43.5 µg/mL) | 125 (≈ 43.5 µg/mL) | 62.5 (≈ 21.8 µg/mL) | 62.5 (≈ 21.8 µg/mL) | > 100 | > 300 | > 300 | > 300 | MIC [6, 9]: 15.6 µM (≈ 5.44 µg/mL); MIC [6, 10]: 15.6 µM (≈ 5.44 µg/mL)
CC(=O)Oc1ccc(O)c(C=Cc2ccc3c(Cl)cc(Cl)c(O)c3n2)c1 [Compound 13, 5,7-Dichloro-2-[2-(2-hydroxy-5-acetoxyphenyl)vinyl]quinolin-8-ol] | 1.5864 |  |  |  |  |  |  |  |  |  |  |  |  |  |  |  | 100 (≈ 256 µM) | > 300 | > 300 | > 300 | 
Oc1c(Cl)cc(Cl)c2ccc(C=Cc3ccc(C=Cc4ccc5c(Cl)cc(Cl)c(O)c5n4)cc3)nc12 [Compound 14, 5,7-Dichloro-2-(2-{4-[2-(5,7-dichloro-8-hydroxyquinolin-2-yl)vinyl]phenyl}vinyl)quinolin-8-ol] | 2.5760 | 334 | 0.98 (≈ 0.543 µg/mL) | 3.9 (≈ 2.16 µg/mL) | 1.95 (≈ 1.08 µg/mL) | 7.81 (≈ 4.33 µg/mL) | 0.98 (≈ 0.543 µg/mL) | 1.95 (≈ 1.08 µg/mL) | 0.49 (≈ 0.272 µg/mL) | 1.95 (≈ 1.08 µg/mL) | 3.9 (≈ 2.16 µg/mL) | 15.6 (≈ 8.66 µg/mL) | 3.9 (≈ 2.16 µg/mL) | 15.6 (≈ 8.66 µg/mL) | 15.6 (≈ 8.66 µg/mL) | 31.2 (≈ 17.3 µg/mL) | 40 (≈ 72.2 µM) | 130 (≈ 235 µM) | 40 (≈ 72.2 µM) | > 300 | MIC [6, 9]: 7.81 µM (≈ 4.33 µg/mL); MIC [6, 10]: 3.9 µM (≈ 2.16 µg/mL)
CN(C)C(=O)Nc1ccc(Cl)c(Cl)c1 [DCMU, 3-(3,4-dichlorophenyl)-1,1-dimethylurea] |  |  |  |  |  |  |  |  |  |  |  |  |  |  |  |  |  |  |  |  | IC50 [8]: ~1.9 µM and 1.9 µM
NNC(=O)c1ccncc1 [INH, isoniazid, reference compound] |  |  |  |  |  |  |  |  |  |  |  |  |  |  |  |  | 39 (≈ 284 µM) | > 100 | < 10 | < 10 | 
NC(=O)c1cnccn1 [PZA, pyrazinamide, reference compound] |  |  |  |  |  |  |  |  |  |  |  |  |  |  |  |  | > 100 | > 100 | > 100 | > 100 | 
